Assay results published in PMC10564737, “Structure-based design of a phosphotyrosine-masked covalent ligand targeting the E3 ligase SOCS2” (Nature Communications, 2023).
“And” between values parts separate entries of the source, which are not always exact repeats. Equal values may be shown once. Read-outs that look alike come from different tables or passages of the source.

Target: T1, SBC2 (Homo sapiens, UniProt O14508)
T1 construct: SOCS2 (amino acids 32–198); His6 (N, cleaved yes); made in house; host or cells: E. coli BL21(DE3)
T1 sequence (O14508 32-198): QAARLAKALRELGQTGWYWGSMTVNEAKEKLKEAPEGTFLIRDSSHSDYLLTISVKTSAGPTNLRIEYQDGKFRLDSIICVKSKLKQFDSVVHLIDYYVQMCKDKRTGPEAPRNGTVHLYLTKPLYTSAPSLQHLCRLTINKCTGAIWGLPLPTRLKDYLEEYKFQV
T1 sequence (Q15370 1-104 partner limits assumed): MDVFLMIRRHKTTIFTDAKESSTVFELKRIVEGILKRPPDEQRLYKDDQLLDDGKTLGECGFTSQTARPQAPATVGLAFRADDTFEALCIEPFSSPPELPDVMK
T1 sequence (Q15369 17-112 partner limits assumed): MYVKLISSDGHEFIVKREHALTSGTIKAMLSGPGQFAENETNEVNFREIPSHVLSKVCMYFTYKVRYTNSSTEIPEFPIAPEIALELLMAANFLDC
Assay: Covalent fluorescence polarization (FP) probe displacement assay
Format: binding
Conditions: for kinact/KI: read-out: Slope: Kinact/Ki (converted); for Anisotropy based on Raw Data (485): Cycle 7 (30 min); for Fb, fraction bound: Cycle 2 (5 min); for Anisotropy data 485,520,520 / Normalised anisotropy (0 nM MN551 = 1, free probe = 0) / Anisotropy normalised (0 nM MN551 = 1, free probe = 0): n=1
Excerpt: With the specific covalent modification of Cys111 established, we decided to fully characterize MN551 as a covalent SOCS2 inhibitor. […] (Fig. 2g, h, Supplementary Fig. 9). Due to the covalent nature of the competing inhibitor, a time-dependent reduction in the fraction of protein-bound probe is observed. […] This value illustrates reasonable specificity for a covalent inhibitor, with nonetheless scope for future optimization. In addition to characterizing the kinetic covalency parameters, we have also assessed the stability of the MN551 by monitoring its reactivity (half-life >70 min) with reduced glutathione (GSH) (Supplementary Fig. 10)[35].
To monitor the SBC2-ligand binding kinetics we designed a fluorescein-labeled small-molecule probe - compound 26. The fluorescence polarization (anisotropy) of a threefold serial dilution of 50 µM SBC2 in 10 nM of the probe in 100 mM HEPES pH 7.5, 50 mM NaCl, 0.5 mM TCEP, 2% DMSO was measured to determine the KL (Supplementary Fig. 9A) (BMG Labtech PHERAstar – firmware v1.33). Protein titration and the curves were fitted using GraphPad Prism 9, using one-site fitting models to determine the probe binding constant, KL. Samples were run in triplicate in 384 well plates, using a total volume per well of 16 μL. The bound fraction of the probe is measure using the equation:1 Fb=Af−A/Af−Ab Where,
A time-dependent reduction in probe anisotropy were measured for a 2-fold serial dilution of […] compound MN551 in 10 nM probe +300 μM SBC2. To determine the initial reversible binding affinity, the initial bound fraction of the probe at time = 0, Fbo (the y-intercept in Fb v/s Time plot, Supplementary Fig. 9B) was plotted against MN551 concentration, and the obtained IC50 is then converted to Ki (Supplementary Fig. 9C)[17]. The slope from Fb versus time graph when divided by Fbo gives rate of covalency, kobs. A plot of kobs v/s MN551 concentration using Michaelis–Menten model of GraphPad Prism 9, provides the parameters kinact (maximum potential rate of inactivation) and KI (concentration of MN551 at which kobs = kinact/2) (Supplementary Fig. 9D, E).
The observed first-order rate constant, kobs is related to KI and kinact by the equation:2 kobs=kinactI/KI+I
At [I]«[KI] the above equation is converted to3 […]
The slope from the plot of kobs against concentration of MN551 gives us the covalent efficiency parameter kinact/KI (Supp Fig. 9F)[30],[33].

[1] = MN551 12.599 nM, Cycle 11 (50 min)
[2] = MN551 12.599 nM, Cycle 18 (85 min)
[3] = MN551 17.6386 nM, Cycle 11 (50 min)
[4] = MN551 17.6386 nM, Cycle 12 (55 min)
[5] = MN551 17.6386 nM, Cycle 18 (85 min)
[6] = MN551 24.694 nM, Cycle 11 (50 min)
[7] = MN551 24.694 nM, Cycle 12 (55 min)
[8] = MN551 24.694 nM, Cycle 18 (85 min)
[9] = MN551 34.5716 nM, Cycle 11 (50 min)
[10] = MN551 34.5716 nM, Cycle 12 (55 min)
[11] = MN551 34.5716 nM, Cycle 18 (85 min)

O=C(CCl)Nc1cccc(CNC(=O)[C@H](Cc2ccc(OP(=O)(O)O)cc2)NC(=O)Cc2ccc(F)cc2)c1 [MN551]
kinact (FP competition assay to evaluate MN551 covalent efficiency, experiment n=1, from Michaelis-Menten fit (Vmax), read-out: Kinact (converted)): 0.0145 min⁻¹
kinact (FP competition assay to evaluate MN551 covalent efficiency, experiment n=1, read-out: Kinact (converted)): 0.0145 min⁻¹
kinact/KI (FP competition assay to evaluate MN551 covalent efficiency, experiment n=1, slope of linear fit, MN551 below Ki titration): 55.8 M⁻¹ s⁻¹
kinact/KI (FP competition assay to evaluate MN551 covalent efficiency, experiment n=1, slope of linear fit): 55.8 M⁻¹ s⁻¹
kinact (FP competition assay, replicate n=3, read-out: Kinact (min-1) (converted)): 0.0174 min⁻¹
kinact (FP competition assay, replicate n=3, read-out: Kinact (s-1)): 0.0174 min⁻¹
kinact/KI (FP competition assay, replicate n=3): 61.5 M⁻¹ s⁻¹
Anisotropy based on Raw Data (485) (MN551 12.207 nM): 281.1 and 280.8 and 279.5
Fb, fraction bound (MN551 12.207 nM): 0.9935 and 1.0185 and 1.023
Anisotropy (MN551 12.207 nM, Cycle 11 (50 min)): 276.9 and 277 and 280.3
Anisotropy data 485,520,520 (MN551 12.207 nM, Cycle 18 (85 min)): 272.5 and 273.4 and 274.8
Anisotropy based on Raw Data (485) (MN551 12.599 nM): 275 and 272 and 270
Normalised anisotropy (0 nM MN551 = 1, free probe = 0) (MN551 12.599 nM, Cycle 13 (60 min)): 0.9972 and 0.9668 and 1.008
Normalised anisotropy (0 nM MN551 = 1, free probe = 0) (MN551 12.599 nM, Cycle 14 (65 min)): 1.04 and 1.018 and 1.012
Fb, fraction bound (MN551 12.599 nM): 1.02 and 0.9926 and 1.014
Anisotropy [1]: 278.4 and 278.3 and 275.7
Fb [1]: 1.027 and 1.013 and 1.017
Fb (MN551 12.599 nM, Cycle 12 (55 min)): 1.006 and 1.0163 and 0.9962
Anisotropy data 485,520,520 [2]: 273.9 and 272.6 and 271.8
Anisotropy normalised (0 nM MN551 = 1, free probe = 0) [2]: 1.0213 and 1.004 and 1.0408
Anisotropy normalised (0 nM MN551 = 1, free probe = 0) (MN551 12.599 nM, Cycle 19 (90 min)): 1.03 and 1.012 and 1.015
Anisotropy normalised (0 nM MN551 = 1, free probe = 0) (MN551 12.599 nM, Cycle 20 (95 min)): 0.9942 (2×) and 0.9893
Anisotropy based on Raw Data (485) (MN551 17.6386 nM): 276.7 and 273.3 and 271.3
Normalised anisotropy (0 nM MN551 = 1, free probe = 0) (MN551 17.6386 nM, Cycle 13 (60 min)): 1.033 and 0.9926 and 1.023
Normalised anisotropy (0 nM MN551 = 1, free probe = 0) (MN551 17.6386 nM, Cycle 14 (65 min)): 1.058 and 1.0113 and 1.0096
Fb, fraction bound (MN551 17.6386 nM): 1.066 and 1.015 and 1.047
Anisotropy [3]: 282.4 and 277.6 and 277.2
Fb [3]: 1.065 and 1.007 and 1.031
Anisotropy [4]: 282.3 and 277.4 and 277.1
Fb [4]: 1.042 and 1.027 and 1.02
Anisotropy data 485,520,520 [5]: 277.5 and 272.7 and 272.2
Anisotropy normalised (0 nM MN551 = 1, free probe = 0) [5]: 1.056 and 1.005 and 1.045
Anisotropy normalised (0 nM MN551 = 1, free probe = 0) (MN551 17.6386 nM, Cycle 19 (90 min)): 1.075 and 1.012 and 1.027
Anisotropy normalised (0 nM MN551 = 1, free probe = 0) (MN551 17.6386 nM, Cycle 20 (95 min)): 1.027 and 0.9971 and 1.019
Anisotropy based on Raw Data (485) (MN551 24.4141 nM): 282.9 and 279.8 and 282
Fb, fraction bound (MN551 24.4141 nM): 1.016 and 1.08 and 1.041
Anisotropy (MN551 24.4141 nM, Cycle 11 (50 min)): 280.9 and 281.2 and 279.7
Anisotropy (MN551 24.4141 nM, Cycle 12 (55 min)): 280
Anisotropy data 485,520,520 (MN551 24.4141 nM, Cycle 18 (85 min)): 276.9 and 277.7 and 276.3
Anisotropy based on Raw Data (485) (MN551 24.694 nM): 274.8 and 272.6 and 276.9
Normalised anisotropy (0 nM MN551 = 1, free probe = 0) (MN551 24.694 nM, Cycle 13 (60 min)): 1.02 and 0.977 and 1.0251
Normalised anisotropy (0 nM MN551 = 1, free probe = 0) (MN551 24.694 nM, Cycle 14 (65 min)): 1.023 and 1.014 and 1.022
Fb, fraction bound (MN551 24.694 nM): 1.025 and 1.008 and 1.0546
Anisotropy [6]: 280.6 and 275.8 and 277.4
Fb [6]: 1.048 and 0.9896 and 1.033
Anisotropy [7]: 282.7 and 278.3 and 277.5
Fb [7]: 1.046 and 1.035 and 1.024
Anisotropy data 485,520,520 [8]: 274.3 and 273.5 and 273.4
Anisotropy normalised (0 nM MN551 = 1, free probe = 0) [8]: 1.025 and 1.012 and 1.057
Anisotropy normalised (0 nM MN551 = 1, free probe = 0) (MN551 24.694 nM, Cycle 19 (90 min)): 1.038 and 1.023 and 1.016
Anisotropy normalised (0 nM MN551 = 1, free probe = 0) (MN551 24.694 nM, Cycle 20 (95 min)): 1.035 and 1.007 and 1.013
Anisotropy based on Raw Data (485) (MN551 34.5716 nM): 274.4 and 276.1 and 281.6
Normalised anisotropy (0 nM MN551 = 1, free probe = 0) (MN551 34.5716 nM, Cycle 13 (60 min)): 1.034 and 1.023 and 1.046
Normalised anisotropy (0 nM MN551 = 1, free probe = 0) (MN551 34.5716 nM, Cycle 14 (65 min)): 1.052 and 1.027 and 1.028
Fb, fraction bound (MN551 34.5716 nM): 1.054 and 1.044 and 1.086
Anisotropy [9]: 283.1 and 279.4 and 279.3
Fb [9]: 1.072 and 1.024 and 1.051
Anisotropy [10]: 281.9 and 279 and 279.2
Fb [10]: 1.038 and 1.042 and 1.04
Anisotropy data 485,520,520 [11]: 278.1 and 277 and 275.1
Anisotropy normalised (0 nM MN551 = 1, free probe = 0) [11]: 1.062 and 1.046 and 1.074
Anisotropy normalised (0 nM MN551 = 1, free probe = 0) (MN551 34.5716 nM, Cycle 19 (90 min)): 1.076 and 1.071 and 1.037
Anisotropy normalised (0 nM MN551 = 1, free probe = 0) (MN551 34.5716 nM, Cycle 20 (95 min)): 1.051 and 1.0281 and 1.04
Anisotropy based on Raw Data (485) (MN551 48.4003 nM): 280.1 and 278.6 (2×)
Normalised anisotropy (0 nM MN551 = 1, free probe = 0) (MN551 48.4003 nM, Cycle 13 (60 min)): 1.018 and 0.9871 and 0.9961
Normalised anisotropy (0 nM MN551 = 1, free probe = 0) (MN551 48.4003 nM, Cycle 14 (65 min)): 1.029 and 1 and 1.015
